# In US8604217B2, “Compound, a process for its preparation, a pharmaceutical composition, use of a compound, a method for modulating or regulating serine/threonine kinases and a serine/threonine kinases modulating agent” (Selvita S.A., priority 2009, dated 2013):
# Key:
# Assay in all cases: KinaseProfiler kinase panel
# Type in all cases: biochemical
# [1] = molecular target: eEF-2K(h) (Homo sapiens (Human), UniProt O00418)
# [2] = molecular target: CK1γ2(h) (Homo sapiens (Human), UniProt P78368)
# [3] = molecular target: MKK7β(h) (Homo sapiens (Human), UniProt O14733)
# [4] = molecular target: Abl(T315I)(h) (Homo sapiens (Human), UniProt P00519, T315I)
# [5] = molecular target: Txk(h) (Homo sapiens (Human), UniProt P42681)
# [6] = molecular target: MLK1(h) (Homo sapiens (Human), UniProt P80192)
# [7] = molecular target: EphA4(h) (Homo sapiens (Human), UniProt P54764)
# [8] = molecular target: VRK2(h) (Homo sapiens (Human), UniProt Q86Y07)
# [9] = molecular target: CHK2(R145W)(h) (Homo sapiens (Human), UniProt O96017, R145W)
# [10] = molecular target: IRR(h) (Homo sapiens (Human), UniProt P14616)
# [11] = molecular target: CDK7/cyclinH/MAT1(h) (Homo sapiens (Human), UniProt P50613)
# [12] = molecular target: CDK2/cyclinA(h) (Homo sapiens (Human), UniProt P24941)
# [13] = molecular target: Abl(h) (Homo sapiens (Human), UniProt P00519)
# [14] = molecular target: Lck(h) (Homo sapiens (Human), UniProt P06239)
# [15] = molecular target: LIMK1(h) (Homo sapiens (Human), UniProt P53667)
# [16] = molecular target: DDR2(h) (Homo sapiens (Human), UniProt Q16832)
# [17] = molecular target: MELK(h) (Homo sapiens (Human), UniProt Q14680)
# [18] = molecular target: Pyk2(h) (Homo sapiens (Human), UniProt Q14289)
# [19] = molecular target: MSK1(h) (Homo sapiens (Human), UniProt O75582)
# [20] = molecular target: cSRC(h) (Homo sapiens (Human), UniProt P12931)
# [21] = molecular target: NEK7(h) (Homo sapiens (Human), UniProt Q8TDX7)
# [22] = molecular target: GSK3α(h) (Homo sapiens (Human), UniProt P49840)
# [23] = molecular target: MEK1(h) (Homo sapiens (Human), UniProt Q02750)
# [24] = molecular target: CHK2(I157T)(h) (Homo sapiens (Human), UniProt O96017, I157T)
# [25] = molecular target: IGF-1R(h), activated (Homo sapiens (Human), UniProt P08069)
# [26] = molecular target: HIPK3(h) (Homo sapiens (Human), UniProt Q9H422)
# [27] = molecular target: PAR-1Bα(h) (Homo sapiens (Human), UniProt Q7KZI7)
# [28] = molecular target: NLK(h) (Homo sapiens (Human), UniProt Q9UBE8)
# [29] = molecular target: JNK1α1(h) (Homo sapiens (Human), UniProt P45983)
# [30] = molecular target: GCK(h) (Homo sapiens (Human), UniProt Q12851)
# [31] = molecular target: CK1γ1(h) (Homo sapiens (Human), UniProt Q9HCP0)
# [32] = molecular target: Fes(h) (Homo sapiens (Human), UniProt P07332)
# [33] = molecular target: mTOR/FKBP12(h) (Homo sapiens (Human), UniProt P42345)
# [34] = molecular target: Rsk3(h) (Homo sapiens (Human), UniProt Q15349)
# [35] = molecular target: DAPK1(h) (Homo sapiens (Human), UniProt P53355)
# [36] = molecular target: MAPK2(h) (Homo sapiens (Human), UniProt P28482)
# [37] = molecular target: FGFR3(h) (Homo sapiens (Human), UniProt P22607)
# [38] = molecular target: PKBβ(h) (Homo sapiens (Human), UniProt P31751)
# [39] = molecular target: PKCβI(h) (Homo sapiens (Human), UniProt P05771)
# [40] = molecular target: TAO3(h) (Homo sapiens (Human), UniProt Q9H2K8)
# MAPK2(h), sequence (P28482 whole entry): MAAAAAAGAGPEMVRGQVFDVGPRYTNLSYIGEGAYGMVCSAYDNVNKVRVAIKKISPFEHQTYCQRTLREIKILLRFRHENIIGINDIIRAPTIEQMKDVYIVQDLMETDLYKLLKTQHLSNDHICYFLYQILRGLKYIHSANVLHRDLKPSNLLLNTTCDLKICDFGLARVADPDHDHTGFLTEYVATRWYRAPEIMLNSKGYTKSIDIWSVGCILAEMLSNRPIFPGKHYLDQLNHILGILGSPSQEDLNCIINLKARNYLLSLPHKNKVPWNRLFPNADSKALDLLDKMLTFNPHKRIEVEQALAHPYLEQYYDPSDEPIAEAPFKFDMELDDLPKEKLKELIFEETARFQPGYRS
# mTOR/FKBP12(h), sequence (P42345 1362-2549): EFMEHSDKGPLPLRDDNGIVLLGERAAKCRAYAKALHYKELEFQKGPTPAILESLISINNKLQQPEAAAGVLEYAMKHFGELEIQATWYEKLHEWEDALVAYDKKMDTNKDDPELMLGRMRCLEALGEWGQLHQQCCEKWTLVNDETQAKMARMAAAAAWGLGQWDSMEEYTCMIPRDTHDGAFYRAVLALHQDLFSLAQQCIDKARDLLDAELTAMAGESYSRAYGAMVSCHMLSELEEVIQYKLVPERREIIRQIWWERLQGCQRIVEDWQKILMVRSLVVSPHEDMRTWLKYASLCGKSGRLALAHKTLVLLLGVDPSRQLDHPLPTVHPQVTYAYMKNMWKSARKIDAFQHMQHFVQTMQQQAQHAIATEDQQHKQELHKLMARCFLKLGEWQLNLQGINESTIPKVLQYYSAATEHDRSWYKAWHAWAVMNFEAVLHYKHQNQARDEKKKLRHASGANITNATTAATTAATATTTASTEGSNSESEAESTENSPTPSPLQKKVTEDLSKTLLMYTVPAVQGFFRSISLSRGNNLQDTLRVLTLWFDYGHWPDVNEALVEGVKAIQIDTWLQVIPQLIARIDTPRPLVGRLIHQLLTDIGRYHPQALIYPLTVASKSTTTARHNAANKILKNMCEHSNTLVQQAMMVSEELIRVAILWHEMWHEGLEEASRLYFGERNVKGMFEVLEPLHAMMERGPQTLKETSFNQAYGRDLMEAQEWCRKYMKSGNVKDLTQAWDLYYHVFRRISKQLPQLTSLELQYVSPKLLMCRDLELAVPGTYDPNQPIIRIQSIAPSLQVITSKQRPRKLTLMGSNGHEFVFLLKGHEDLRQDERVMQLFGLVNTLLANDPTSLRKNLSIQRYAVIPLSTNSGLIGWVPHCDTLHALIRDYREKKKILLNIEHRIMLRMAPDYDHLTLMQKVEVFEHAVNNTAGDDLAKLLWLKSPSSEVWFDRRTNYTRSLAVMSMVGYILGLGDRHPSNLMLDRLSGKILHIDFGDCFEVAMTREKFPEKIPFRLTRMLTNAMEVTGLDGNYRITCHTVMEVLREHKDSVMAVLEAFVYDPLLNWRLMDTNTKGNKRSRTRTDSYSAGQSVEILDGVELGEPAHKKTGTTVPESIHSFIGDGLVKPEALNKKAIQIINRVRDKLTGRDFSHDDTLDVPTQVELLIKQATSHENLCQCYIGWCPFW
# Pyk2(h), sequence (Q14289 whole entry): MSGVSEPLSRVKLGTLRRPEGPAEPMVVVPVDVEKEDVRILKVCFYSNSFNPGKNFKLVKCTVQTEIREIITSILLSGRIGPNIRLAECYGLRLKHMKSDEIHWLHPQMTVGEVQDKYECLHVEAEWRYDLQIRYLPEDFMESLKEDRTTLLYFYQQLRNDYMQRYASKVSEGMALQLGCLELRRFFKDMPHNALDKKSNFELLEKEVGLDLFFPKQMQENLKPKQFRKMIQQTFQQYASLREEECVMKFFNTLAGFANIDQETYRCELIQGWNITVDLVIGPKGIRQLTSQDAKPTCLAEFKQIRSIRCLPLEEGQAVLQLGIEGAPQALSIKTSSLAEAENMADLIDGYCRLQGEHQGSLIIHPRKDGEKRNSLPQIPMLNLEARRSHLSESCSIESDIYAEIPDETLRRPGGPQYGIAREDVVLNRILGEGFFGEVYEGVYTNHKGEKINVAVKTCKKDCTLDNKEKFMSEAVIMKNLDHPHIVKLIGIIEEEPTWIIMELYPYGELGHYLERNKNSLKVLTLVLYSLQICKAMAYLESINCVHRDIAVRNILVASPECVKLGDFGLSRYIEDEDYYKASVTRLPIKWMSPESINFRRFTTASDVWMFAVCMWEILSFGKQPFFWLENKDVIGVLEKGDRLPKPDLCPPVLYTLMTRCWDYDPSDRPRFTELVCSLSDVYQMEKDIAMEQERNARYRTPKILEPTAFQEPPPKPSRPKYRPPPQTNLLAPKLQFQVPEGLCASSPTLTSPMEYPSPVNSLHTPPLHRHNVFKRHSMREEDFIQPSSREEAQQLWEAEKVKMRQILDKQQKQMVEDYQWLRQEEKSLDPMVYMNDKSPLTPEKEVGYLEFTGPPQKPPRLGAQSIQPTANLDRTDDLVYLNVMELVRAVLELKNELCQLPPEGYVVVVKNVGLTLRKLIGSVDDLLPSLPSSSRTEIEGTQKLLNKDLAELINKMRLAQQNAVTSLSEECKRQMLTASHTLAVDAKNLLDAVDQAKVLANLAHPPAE
# IGF-1R(h), activated, sequence (P08069 31-1367): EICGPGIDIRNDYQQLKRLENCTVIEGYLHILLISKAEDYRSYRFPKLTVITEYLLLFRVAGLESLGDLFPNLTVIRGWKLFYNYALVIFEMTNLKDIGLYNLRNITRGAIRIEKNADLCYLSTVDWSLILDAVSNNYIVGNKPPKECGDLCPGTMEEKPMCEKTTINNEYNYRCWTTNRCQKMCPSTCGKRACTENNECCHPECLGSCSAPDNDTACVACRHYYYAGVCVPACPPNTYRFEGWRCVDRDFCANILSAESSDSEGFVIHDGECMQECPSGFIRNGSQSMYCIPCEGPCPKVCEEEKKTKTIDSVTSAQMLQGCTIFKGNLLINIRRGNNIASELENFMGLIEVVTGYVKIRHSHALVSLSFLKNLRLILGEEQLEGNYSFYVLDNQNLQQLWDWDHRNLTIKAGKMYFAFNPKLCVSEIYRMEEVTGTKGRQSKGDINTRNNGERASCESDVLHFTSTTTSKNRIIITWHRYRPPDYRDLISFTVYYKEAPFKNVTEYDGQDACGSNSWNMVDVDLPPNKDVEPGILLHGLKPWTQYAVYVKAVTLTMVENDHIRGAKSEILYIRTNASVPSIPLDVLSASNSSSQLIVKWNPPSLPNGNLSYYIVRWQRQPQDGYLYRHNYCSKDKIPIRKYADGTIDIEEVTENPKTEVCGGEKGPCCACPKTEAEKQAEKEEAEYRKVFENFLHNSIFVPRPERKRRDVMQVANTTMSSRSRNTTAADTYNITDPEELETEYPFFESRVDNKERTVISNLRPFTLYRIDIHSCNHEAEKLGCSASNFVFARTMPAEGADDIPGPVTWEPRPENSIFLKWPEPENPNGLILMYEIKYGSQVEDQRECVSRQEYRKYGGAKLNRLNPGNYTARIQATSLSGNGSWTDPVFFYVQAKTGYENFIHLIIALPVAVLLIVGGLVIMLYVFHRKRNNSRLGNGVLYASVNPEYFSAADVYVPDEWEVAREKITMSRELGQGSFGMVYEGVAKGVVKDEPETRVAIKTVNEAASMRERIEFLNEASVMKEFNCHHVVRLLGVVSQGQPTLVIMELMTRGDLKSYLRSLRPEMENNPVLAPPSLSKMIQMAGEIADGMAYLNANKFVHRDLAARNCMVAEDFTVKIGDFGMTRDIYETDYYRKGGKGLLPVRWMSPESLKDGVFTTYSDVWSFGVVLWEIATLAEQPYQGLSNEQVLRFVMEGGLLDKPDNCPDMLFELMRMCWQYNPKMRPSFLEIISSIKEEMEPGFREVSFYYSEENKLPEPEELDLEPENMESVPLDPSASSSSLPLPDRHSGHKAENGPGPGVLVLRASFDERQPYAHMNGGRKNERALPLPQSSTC
# CDK7/cyclinH/MAT1(h), sequence (P50613 whole entry): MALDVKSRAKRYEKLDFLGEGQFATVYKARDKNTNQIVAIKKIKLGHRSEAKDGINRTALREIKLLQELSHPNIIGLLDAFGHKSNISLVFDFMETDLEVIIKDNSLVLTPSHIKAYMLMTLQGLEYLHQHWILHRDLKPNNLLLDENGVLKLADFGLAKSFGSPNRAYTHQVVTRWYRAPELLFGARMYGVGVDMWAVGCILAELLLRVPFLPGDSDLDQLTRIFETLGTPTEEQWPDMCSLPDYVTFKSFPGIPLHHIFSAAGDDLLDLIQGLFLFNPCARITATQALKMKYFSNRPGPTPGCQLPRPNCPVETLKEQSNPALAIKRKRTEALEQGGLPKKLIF
# CDK7/cyclinH/MAT1(h), sequence (P51946 whole entry partner): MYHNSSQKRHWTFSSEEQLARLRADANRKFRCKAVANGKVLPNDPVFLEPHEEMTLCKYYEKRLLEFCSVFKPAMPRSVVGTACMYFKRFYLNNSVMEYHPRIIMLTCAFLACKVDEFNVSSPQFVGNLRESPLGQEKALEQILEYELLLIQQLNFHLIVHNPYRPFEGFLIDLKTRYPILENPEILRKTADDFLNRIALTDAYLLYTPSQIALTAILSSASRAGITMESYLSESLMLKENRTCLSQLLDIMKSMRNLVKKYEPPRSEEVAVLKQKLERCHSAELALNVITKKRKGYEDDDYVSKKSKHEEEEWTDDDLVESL
# CDK7/cyclinH/MAT1(h), sequence (P51948 whole entry partner): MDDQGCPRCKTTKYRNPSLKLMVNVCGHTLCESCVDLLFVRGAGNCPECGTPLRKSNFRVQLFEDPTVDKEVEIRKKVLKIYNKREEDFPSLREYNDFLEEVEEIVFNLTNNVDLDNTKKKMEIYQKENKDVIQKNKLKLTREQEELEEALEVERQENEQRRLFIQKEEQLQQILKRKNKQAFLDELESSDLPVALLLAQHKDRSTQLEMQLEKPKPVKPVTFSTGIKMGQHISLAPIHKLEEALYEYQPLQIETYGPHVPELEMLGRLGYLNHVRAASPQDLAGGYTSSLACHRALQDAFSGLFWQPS
smiles,measurement,setting,value
"CCn1c(N2CCNCC2)nc2c(Br)c(Br)c(Br)c(Br)c21 [Compound 416, 4,5,6,7-tetrabromo-1-ethyl-2-(piperazin-1-yl)-1H-benzo[d]imidazole]",remaining activity at 1 µM,[1],107%
same,remaining activity at 1 µM,[2],85%
same,remaining activity at 1 µM,[3],95%
same,remaining activity at 1 µM,[4],92%
same,remaining activity at 1 µM,[5],99%
same,remaining activity at 1 µM,[6],87%
same,remaining activity at 1 µM,[7],99%
same,remaining activity at 1 µM,[8],103%
same,remaining activity at 1 µM,[9],76%
same,remaining activity at 1 µM,[10],91%
same,remaining activity at 1 µM,[11],25%
same,remaining activity at 1 µM,[12],7%
same,remaining activity at 1 µM,[13],107%
same,remaining activity at 1 µM,[14],43%
same,remaining activity at 1 µM,[15],98%
same,remaining activity at 1 µM,[16],105%
same,remaining activity at 1 µM,[17],86%
same,remaining activity at 1 µM,[18],97%
same,remaining activity at 1 µM,[19],54%
same,remaining activity at 1 µM,[20],79%
same,remaining activity at 1 µM,[21],115%
same,remaining activity at 1 µM,[22],60%
same,remaining activity at 1 µM,[23],73%
same,remaining activity at 1 µM,[24],80%
same,remaining activity at 1 µM,[25],87%
same,remaining activity at 1 µM,[26],-1%
same,remaining activity at 1 µM,[27],85%
same,remaining activity at 1 µM,[28],85%
same,remaining activity at 1 µM,[29],97%
same,remaining activity at 1 µM,[30],75%
same,remaining activity at 1 µM,[31],83%
same,remaining activity at 1 µM,[32],52%
same,remaining activity at 1 µM,[33],103%
same,remaining activity at 1 µM,[34],71%
same,remaining activity at 1 µM,[35],100%
same,remaining activity at 1 µM,[36],81%
same,remaining activity at 1 µM,[37],105%
same,remaining activity at 1 µM,[38],90%
same,remaining activity at 1 µM,[39],102%
same,remaining activity at 1 µM,[40],14%
